Four compounds from ChEMBL document CHEMBL2034915, “Ring Structure and Aromatic Substituent Effects on the pK a of the Benzoxaborole Pharmacophore” (ACS Med Chem Lett, 2012) can be followed below.

Series [1] in a line: Dissociation constant, pKa of the compound in aqueous solution by spectrophotometry. The class given is physicochemical.
Series [2] in a line: Binding affinity to adenosine monophosphate in phosphate buffer by ARS competition assay at pH 7.4.
The nature of series [3]: Dissociation constant, pKa of the compound in aqueous solution by [11]B-NMR analysis. The class given is physicochemical.

Activity calls are given as the source filed them. The calls are words filed in the database; no cut-off is given here.

Usually pKa stands for the pH at which an ionisable group is half protonated. High values mean a weaker acid or stronger base, low ones a stronger acid or weaker base.

Take `CC1(C)OB(O)c2ccccc21`: the pKa in series [1] worked out at 8.32.
As for `OB1OCc2cc(C(F)(F)F)ccc21`, the result in series [2] was Active.
As to `OB1OCCc2ccccc21` [BENZOXABORIN], the pKa in series [1] and in series [3] was 8.4 throughout.
Consider `OB1OCc2ccccc21` [BENZOXABOROLE], for which the pKa is 7.34 in series [1] and 7.2 in series [3]. In addition, in series [2], the result was Active.
